Key:
CDK6/CCND3 = CDK6/CCND3 (Homo sapiens, UniProt Q00534); assay: Kinase selectivity screen; settings: read-out: % Inhibition CDK6/CCND3
CDK1/CCNB1 = CDK1/CCNB1 (Homo sapiens, UniProt P06493); assay: Kinase selectivity screen; settings: read-out: % Inhibition CDK1/CCNB1
PRKACA = PRKACA (Homo sapiens, UniProt P17612); assay: Kinase selectivity screen; settings: read-out: % Inhibition PRKACA
MKNK2 = MKNK2 (Homo sapiens, UniProt Q9HBH9); assay: Kinase selectivity screen; format: biochemical; settings: 1 μM compound
PAK7 = PAK7 (Homo sapiens, UniProt Q9P286); assay: Kinase selectivity screen; settings: read-out: % Inhibition PAK7
JAK3 = JAK3 (Homo sapiens, UniProt P52333); assay: Kinase selectivity screen; settings: read-out: % Inhibition JAK3
FLT3 = FLT3 (Homo sapiens, UniProt P36888); assay: Kinase selectivity screen; settings: read-out: % Inhibition FLT3
FGFR1 = FGFR1 (Homo sapiens, UniProt P11362); assay: Kinase selectivity screen; settings: read-out: % Inhibition FGFR1
MARK2 = MARK2 (Homo sapiens, UniProt Q7KZI7); assay: Kinase selectivity screen; settings: read-out: % Inhibition MARK2
EPHA5 = EPHA5 (Homo sapiens, UniProt P54756); assay: Kinase selectivity screen; settings: read-out: % Inhibition EPHA5
Full-length human MNK2 = Full-length human MNK2 (Homo sapiens, UniProt Q9HBH9, T379D); assay: MNK2 biochemical IC50 assay (Caliper mobility shift)
BLK = BLK (Homo sapiens, UniProt P51451); assay: Kinase selectivity screen; settings: read-out: % Inhibition BLK
ROCK2 = ROCK2 (Homo sapiens, UniProt O75116); assay: Kinase selectivity screen; settings: read-out: % Inhibition ROCK2
PTK6 = PTK6 (Homo sapiens, UniProt Q13882); assay: Kinase selectivity screen; settings: read-out: % Inhibition PTK6
CHEK1 = CHEK1 (Homo sapiens, UniProt O14757); assay: Kinase selectivity screen; settings: read-out: % Inhibition CHEK1
Sequence of CHEK1 (O14757 whole entry, species assumed): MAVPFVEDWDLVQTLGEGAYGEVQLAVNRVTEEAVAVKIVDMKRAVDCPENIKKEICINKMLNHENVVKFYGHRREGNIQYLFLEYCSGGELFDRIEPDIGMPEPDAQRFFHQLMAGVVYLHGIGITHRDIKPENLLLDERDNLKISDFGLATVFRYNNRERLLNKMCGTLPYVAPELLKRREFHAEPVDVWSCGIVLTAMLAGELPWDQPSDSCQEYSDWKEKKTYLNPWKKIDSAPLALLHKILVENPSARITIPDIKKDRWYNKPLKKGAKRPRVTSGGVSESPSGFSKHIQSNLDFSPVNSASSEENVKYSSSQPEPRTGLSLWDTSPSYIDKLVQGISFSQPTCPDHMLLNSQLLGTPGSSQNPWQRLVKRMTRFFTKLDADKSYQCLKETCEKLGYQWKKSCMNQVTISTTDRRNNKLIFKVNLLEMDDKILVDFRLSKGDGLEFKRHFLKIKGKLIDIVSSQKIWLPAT

Sequence of CDK1/CCNB1 (P06493 whole entry, species assumed): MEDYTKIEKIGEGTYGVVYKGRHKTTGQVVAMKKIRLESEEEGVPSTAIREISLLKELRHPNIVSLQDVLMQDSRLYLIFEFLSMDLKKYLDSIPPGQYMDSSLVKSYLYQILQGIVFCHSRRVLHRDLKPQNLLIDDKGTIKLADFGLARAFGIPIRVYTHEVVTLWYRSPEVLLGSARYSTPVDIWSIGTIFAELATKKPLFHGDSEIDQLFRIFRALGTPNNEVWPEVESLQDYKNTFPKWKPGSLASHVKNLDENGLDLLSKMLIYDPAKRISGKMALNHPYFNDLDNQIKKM
Sequence of CDK1/CCNB1 (P14635 whole entry partner, species assumed): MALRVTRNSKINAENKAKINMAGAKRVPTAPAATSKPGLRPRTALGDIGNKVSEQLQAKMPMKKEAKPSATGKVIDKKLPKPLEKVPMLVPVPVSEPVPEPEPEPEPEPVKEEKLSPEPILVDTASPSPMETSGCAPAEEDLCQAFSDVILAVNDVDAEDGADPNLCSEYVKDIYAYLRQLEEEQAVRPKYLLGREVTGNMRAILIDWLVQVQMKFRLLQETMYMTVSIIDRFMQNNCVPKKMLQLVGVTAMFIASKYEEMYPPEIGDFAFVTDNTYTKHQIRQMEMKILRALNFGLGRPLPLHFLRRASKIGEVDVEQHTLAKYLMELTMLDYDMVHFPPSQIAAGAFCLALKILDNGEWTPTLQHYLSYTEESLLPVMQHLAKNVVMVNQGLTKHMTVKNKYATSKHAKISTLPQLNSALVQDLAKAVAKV
Sequence of JAK3 (P52333 whole entry, species assumed): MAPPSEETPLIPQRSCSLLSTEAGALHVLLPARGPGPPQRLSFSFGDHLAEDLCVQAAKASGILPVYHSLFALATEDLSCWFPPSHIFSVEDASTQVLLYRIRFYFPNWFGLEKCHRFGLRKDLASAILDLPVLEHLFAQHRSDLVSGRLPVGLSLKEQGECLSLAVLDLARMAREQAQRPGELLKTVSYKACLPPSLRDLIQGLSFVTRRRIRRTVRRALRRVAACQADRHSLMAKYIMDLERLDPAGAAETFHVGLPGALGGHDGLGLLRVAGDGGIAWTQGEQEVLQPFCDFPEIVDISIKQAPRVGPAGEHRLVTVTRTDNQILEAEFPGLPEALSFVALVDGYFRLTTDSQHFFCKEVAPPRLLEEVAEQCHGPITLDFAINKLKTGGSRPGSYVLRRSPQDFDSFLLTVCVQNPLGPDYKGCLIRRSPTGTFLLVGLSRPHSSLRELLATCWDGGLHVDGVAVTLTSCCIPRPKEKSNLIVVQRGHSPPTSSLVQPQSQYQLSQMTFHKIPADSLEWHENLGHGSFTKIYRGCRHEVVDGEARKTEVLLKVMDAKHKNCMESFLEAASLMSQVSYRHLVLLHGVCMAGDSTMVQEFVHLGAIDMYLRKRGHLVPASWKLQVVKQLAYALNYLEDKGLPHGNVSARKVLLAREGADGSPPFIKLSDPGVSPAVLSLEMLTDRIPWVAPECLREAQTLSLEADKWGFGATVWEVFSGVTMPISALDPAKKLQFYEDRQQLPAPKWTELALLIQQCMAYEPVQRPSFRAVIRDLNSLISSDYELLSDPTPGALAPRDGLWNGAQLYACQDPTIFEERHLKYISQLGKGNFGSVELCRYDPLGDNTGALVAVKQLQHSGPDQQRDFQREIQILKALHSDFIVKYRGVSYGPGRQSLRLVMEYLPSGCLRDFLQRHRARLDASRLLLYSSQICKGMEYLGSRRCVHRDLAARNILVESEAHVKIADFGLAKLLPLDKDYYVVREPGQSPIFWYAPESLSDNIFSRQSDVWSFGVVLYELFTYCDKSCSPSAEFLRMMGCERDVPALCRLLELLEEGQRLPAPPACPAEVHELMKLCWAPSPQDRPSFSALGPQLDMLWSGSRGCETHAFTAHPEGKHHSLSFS
Sequence of Full-length human MNK2 (Q9HBH9 whole entry T379D): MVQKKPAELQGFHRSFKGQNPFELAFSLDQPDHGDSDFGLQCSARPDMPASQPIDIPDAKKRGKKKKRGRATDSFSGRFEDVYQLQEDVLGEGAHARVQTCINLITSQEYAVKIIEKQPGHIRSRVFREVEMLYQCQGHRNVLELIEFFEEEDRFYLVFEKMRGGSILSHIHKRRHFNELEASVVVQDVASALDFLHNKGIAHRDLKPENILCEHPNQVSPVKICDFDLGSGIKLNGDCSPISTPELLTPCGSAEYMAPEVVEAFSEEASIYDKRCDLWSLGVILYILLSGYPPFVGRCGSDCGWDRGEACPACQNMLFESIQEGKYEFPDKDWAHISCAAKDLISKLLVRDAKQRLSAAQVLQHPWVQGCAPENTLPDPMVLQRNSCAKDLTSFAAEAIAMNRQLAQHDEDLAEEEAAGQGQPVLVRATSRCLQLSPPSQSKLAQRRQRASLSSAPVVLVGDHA
Sequence of PAK7 (Q9P286 whole entry, species assumed): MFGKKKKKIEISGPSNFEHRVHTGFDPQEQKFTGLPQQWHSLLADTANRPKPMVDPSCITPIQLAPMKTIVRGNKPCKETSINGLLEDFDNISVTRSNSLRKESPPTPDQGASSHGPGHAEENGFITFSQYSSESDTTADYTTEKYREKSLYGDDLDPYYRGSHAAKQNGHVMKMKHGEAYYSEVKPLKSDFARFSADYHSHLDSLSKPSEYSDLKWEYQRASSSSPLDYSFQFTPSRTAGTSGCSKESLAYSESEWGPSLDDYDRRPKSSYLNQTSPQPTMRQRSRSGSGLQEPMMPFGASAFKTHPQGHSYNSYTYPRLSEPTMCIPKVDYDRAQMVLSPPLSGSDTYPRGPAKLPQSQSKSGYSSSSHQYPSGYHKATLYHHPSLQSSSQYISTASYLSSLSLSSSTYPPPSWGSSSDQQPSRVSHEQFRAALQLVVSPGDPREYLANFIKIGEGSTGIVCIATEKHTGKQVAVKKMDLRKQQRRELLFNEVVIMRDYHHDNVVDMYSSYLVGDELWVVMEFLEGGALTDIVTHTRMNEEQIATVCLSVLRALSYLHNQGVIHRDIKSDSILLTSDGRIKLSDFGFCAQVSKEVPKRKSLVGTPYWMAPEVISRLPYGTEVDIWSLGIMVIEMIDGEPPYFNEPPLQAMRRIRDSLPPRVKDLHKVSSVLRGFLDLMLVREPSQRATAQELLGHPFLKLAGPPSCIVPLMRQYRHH
Sequence of PTK6 (Q13882 whole entry, species assumed): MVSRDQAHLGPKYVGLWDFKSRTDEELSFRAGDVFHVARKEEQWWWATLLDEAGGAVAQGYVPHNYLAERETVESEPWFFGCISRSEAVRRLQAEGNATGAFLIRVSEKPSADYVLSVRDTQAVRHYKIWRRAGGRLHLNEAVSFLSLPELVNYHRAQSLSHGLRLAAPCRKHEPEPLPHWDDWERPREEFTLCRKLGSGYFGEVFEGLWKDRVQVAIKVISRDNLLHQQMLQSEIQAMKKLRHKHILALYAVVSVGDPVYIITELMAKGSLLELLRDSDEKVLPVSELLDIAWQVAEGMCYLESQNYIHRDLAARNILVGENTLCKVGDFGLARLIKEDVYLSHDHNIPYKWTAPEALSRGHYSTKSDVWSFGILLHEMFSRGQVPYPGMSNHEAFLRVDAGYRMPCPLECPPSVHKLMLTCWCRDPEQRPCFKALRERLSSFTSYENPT
Sequence of MKNK2 (Q9HBH9 whole entry, species assumed): as the sequence (Q9HBH9 whole entry T379D) above, with D379T counted along it
Sequence of CDK6/CCND3 (Q00534 whole entry, species assumed): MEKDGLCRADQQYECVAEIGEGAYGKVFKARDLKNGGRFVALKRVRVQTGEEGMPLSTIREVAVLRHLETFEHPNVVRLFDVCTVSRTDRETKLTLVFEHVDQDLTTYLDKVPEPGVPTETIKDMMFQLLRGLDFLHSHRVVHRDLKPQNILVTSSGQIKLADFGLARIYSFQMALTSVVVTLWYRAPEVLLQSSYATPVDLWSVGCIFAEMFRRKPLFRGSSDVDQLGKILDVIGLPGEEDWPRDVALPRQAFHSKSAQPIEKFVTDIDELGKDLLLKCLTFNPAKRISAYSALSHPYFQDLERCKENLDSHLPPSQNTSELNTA
Sequence of CDK6/CCND3 (P30281 whole entry partner, species assumed): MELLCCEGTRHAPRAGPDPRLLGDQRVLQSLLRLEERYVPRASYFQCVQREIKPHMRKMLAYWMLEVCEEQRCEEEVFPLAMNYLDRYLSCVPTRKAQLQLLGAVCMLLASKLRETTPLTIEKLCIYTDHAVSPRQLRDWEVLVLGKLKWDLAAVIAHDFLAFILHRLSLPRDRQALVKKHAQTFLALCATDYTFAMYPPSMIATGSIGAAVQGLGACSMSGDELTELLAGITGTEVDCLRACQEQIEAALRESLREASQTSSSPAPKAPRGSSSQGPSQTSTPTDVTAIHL

CC(C)Oc1cc(F)ccc1Nc1ncnc2cc(C(=O)NCCCN(C)C)n(C)c12 [Example 40, N-[3-(dimethylamino)propyl]-4-{[4-fluoro-2-(propan-2-yloxy)phenyl]amino}-5-methyl-5H-pyrrolo[3,2-d]pyrimidine-6-carboxamide]
84%: inhibition at 1 µM (MKNK2)
24%: inhibition at 1 µM (FLT3)
39.8 nM: IC50 (Full-length human MNK2)
0%: inhibition at 1 µM (CDK6/CCND3) | inhibition at 1 µM (CDK1/CCNB1) | inhibition at 1 µM (PRKACA) | inhibition at 1 µM (PAK7) | inhibition at 1 µM (JAK3) | inhibition at 1 µM (FGFR1) | inhibition at 1 µM (MARK2) | inhibition at 1 µM (EPHA5) | inhibition at 1 µM (ROCK2) | inhibition at 1 µM (PTK6) | inhibition at 1 µM (CHEK1)
4%: inhibition at 1 µM (BLK)

Source: patent publication US10604524B2, “Pyrropyrimidine compounds as MNKs inhibitors” (LIFEARC, priority 2015, dated 2020)
